Data taken from PubChem BioAssay AID248 (DTP/NCI, 2004).
“And” between values parts separate entries of the source, which are not always exact repeats. Equal entries are not always repeated. Inconclusive results and toxic doses are left out. Cut-off read from the data, not from the text of the source: active = T/C of 150% or more; inactive = T/C below 125%.

Tested on: L1210 leukemia ip in BDF1 mice, survival T/C
Test: NCI In Vivo Anticancer Drug Screen. Data for tumor model L1210 Leukemia (intraperitoneal) in B6D2F1 (BDF1) mice
Conditions: endpoint: mean survival time, higher = longer survival
How it was run: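 Value reflects the ratio of survival in compound-treated mice to survival in vehicle-treated controls, with both groups carrying the same transplanted tumor.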

[1] = dose: 100.0 mg/kg/injection, schedule: Q04DX003 (ip), vehicle: saline with Tween-80
[2] = dose: 200.0 mg/kg/injection, schedule: Q04DX003 (ip), vehicle: saline with Tween-80
[3] = dose: 400.0 mg/kg/injection, schedule: Q04DX003 (ip), vehicle: saline with Tween-80
[4] = dose: 100.0 mg/kg/injection, schedule: Q01DX009 (ip), vehicle: saline with Tween-80
[5] = dose: 200.0 mg/kg/injection, schedule: Q01DX009 (ip), vehicle: saline with Tween-80

Measured: T/C

O=[N+]([O-])C1CC(O)CCC1SSC1CCC(O)CC1[N+](=O)[O-] (configuration not stated)
inactive: dose: 100.0 mg/kg/injection, schedule: Q04DX002 (ip), vehicle: other 106 % of control | dose: 200.0 mg/kg/injection, schedule: Q04DX002 (ip), vehicle: other 103 % of control | dose: 400.0 mg/kg/injection, schedule: Q04DX002 (ip), vehicle: other 98 % of control

COc1c(NC(=O)CC(C)=O)ccc2c(C)cc(=O)n(C)c12
inactive: dose: 50.0 mg/kg/injection, schedule: Q01DX001 (ip), vehicle: Klucel (hydroxypropylcellulose) (HPC) 103 % of control | dose: 100.0 mg/kg/injection, schedule: Q01DX001 (ip), vehicle: Klucel (hydroxypropylcellulose) (HPC) 99 % of control | dose: 200.0 mg/kg/injection, schedule: Q01DX001 (ip), vehicle: Klucel (hydroxypropylcellulose) (HPC) 100 % of control

CSc1ccccc1N=Cc1c(N)ccc(C)c1C
inactive: dose: 100.0 mg/kg/injection, schedule: Q01DX001 (ip), vehicle: saline with Tween-80 98 % of control | dose: 200.0 mg/kg/injection, schedule: Q01DX001 (ip), vehicle: saline with Tween-80 95 % of control | dose: 400.0 mg/kg/injection, schedule: Q01DX001 (ip), vehicle: saline with Tween-80 98 % of control

O=C1C=CC(=O)N1c1ccccc1Cl (tested in a mixture with another compound)
inactive: dose: 100.0 mg/kg/injection, schedule: Q04DX003 (ip), vehicle: acetone 107 % of control | dose: 200.0 mg/kg/injection, schedule: Q04DX003 (ip), vehicle: acetone 100 % of control | dose: 400.0 mg/kg/injection, schedule: Q04DX003 (ip), vehicle: acetone 96 % of control

O=C(Nc1cc(C2=NCCN2)cc(C2=NCCN2)c1)c1ccc(C(=O)Nc2cc(C3=NCCN3)cc(C3=NCCN3)c2)cc1
inactive: dose: 0.37 mg/kg/injection, schedule: Q01DX Z (ip), vehicle: methylcellulose (MC) 94 % of control | dose: 0.75 mg/kg/injection, schedule: Q01DX Z (ip), vehicle: methylcellulose (MC) 111 % of control | dose: 1.5 mg/kg/injection, schedule: Q01DX Z (ip), vehicle: methylcellulose (MC) 101 % of control | dose: 2.0 mg/kg/injection, schedule: Q01DX Z (ip), vehicle: carboxymethylcellulose (CMC) 108 % of control | dose: 3.0 mg/kg/injection, schedule: Q01DX Z (ip), vehicle: methylcellulose (MC) 95 % of control | dose: 4.0 mg/kg/injection, schedule: Q01DX Z (ip), vehicle: carboxymethylcellulose (CMC) 92 % of control | dose: 15.0 mg/kg/injection, schedule: Q01DX Z (ip), vehicle: carboxymethylcellulose (CMC) 92 % of control

C[NH-].C[NH-].[I][Pt+2][I]
inactive: dose: 12.0 mg/kg/injection, schedule: Q04DX003 (ip), vehicle: other 118 % of control | dose: 17.0 mg/kg/injection, schedule: Q04DX003 (ip), vehicle: other 113 % of control | dose: 18.0 mg/kg/injection, schedule: Q04DX003 (ip), vehicle: water 102 % of control | dose: 25.0 mg/kg/injection, schedule: Q04DX003 (ip), vehicle: other 108 % of control | dose: 25.0 mg/kg/injection, schedule: Q04DX003 (ip), vehicle: water 102 % of control | dose: 37.0 mg/kg/injection, schedule: Q04DX003 (ip), vehicle: other 111 % of control | dose: 37.0 mg/kg/injection, schedule: Q04DX003 (ip), vehicle: water 115 % of control | dose: 44.0 mg/kg/injection, schedule: Q01DX001 (ip), vehicle: other 113 % of control | dose: 50.0 mg/kg/injection, schedule: Q04DX003 (ip), vehicle: other 110 % of control | dose: 67.0 mg/kg/injection, schedule: Q01DX001 (ip), vehicle: other 114 % of control | dose: 100.0 mg/kg/injection, schedule: Q01DX001 (ip), vehicle: other 120 % of control

FC(F)(F)C(c1ccc(Cl)cc1)c1ccc(Cl)cc1
inactive: dose: 10.0 mg/kg/injection, schedule: Q01DX009 (ip), vehicle: saline with Tween-80 105 % of control | dose: 20.0 mg/kg/injection, schedule: Q01DX009 (ip), vehicle: saline with Tween-80 89 % of control | dose: 40.0 mg/kg/injection, schedule: Q01DX009 (ip), vehicle: saline with Tween-80 97 % of control | dose: 50.0 mg/kg/injection, schedule: Q01DX001 (ip), vehicle: saline 103 % of control | dose: 100.0 mg/kg/injection, schedule: Q01DX001 (ip), vehicle: saline 97 % of control | dose: 100.0 mg/kg/injection, schedule: Q01DX009 (ip), vehicle: other 97 % of control | [1] 103 % of control | dose: 200.0 mg/kg/injection, schedule: Q01DX001 (ip), vehicle: saline 97 % of control | [2] 102 % of control | dose: 400.0 mg/kg/injection, schedule: Q01DX001 (ip), vehicle: saline 103 % of control | [3] 100 % of control

COc1ccc(C#N)cc1OC
inactive: dose: 6.25 mg/kg/injection, schedule: Q04DX002 (ip), vehicle: Klucel (hydroxypropylcellulose) (HPC) 93 % of control | dose: 12.5 mg/kg/injection, schedule: Q04DX002 (ip), vehicle: Klucel (hydroxypropylcellulose) (HPC) 96 % of control | dose: 25.0 mg/kg/injection, schedule: Q04DX002 (ip), vehicle: Klucel (hydroxypropylcellulose) (HPC) 93 % of control and 96 % of control | dose: 100.0 mg/kg/injection, schedule: Q04DX002 (ip), vehicle: Klucel (hydroxypropylcellulose) (HPC) 100 % of control | dose: 200.0 mg/kg/injection, schedule: Q04DX002 (ip), vehicle: Klucel (hydroxypropylcellulose) (HPC) 92 % of control

CC(C)(C)[O][Pb]([c]1ccccc1)([c]1ccccc1)[c]1ccccc1
inactive: dose: 1.56 mg/kg/injection, schedule: Q01DX009 (ip), vehicle: saline with Tween-80 91 % of control

NOCc1nnc(Nc2ccccc2)s1
inactive: [4] 92 % of control | [5] 90 % of control

CCOC(=O)c1cccc([N+](=O)[O-])c1I
inactive: dose: 100.0 mg/kg/injection, schedule: Q04DX003 (ip), vehicle: saline 93 % of control | dose: 200.0 mg/kg/injection, schedule: Q04DX003 (ip), vehicle: saline 95 % of control | dose: 400.0 mg/kg/injection, schedule: Q04DX003 (ip), vehicle: saline 96 % of control

COc1ccc(C)cc1N=Nc1cc(C)ccc1OC
inactive: dose: 100.0 mg/kg/injection, schedule: Q01DX009 (ip), vehicle: gum acacia 100 % of control | dose: 100.0 mg/kg/injection, schedule: Q04DX003 (ip), vehicle: gum acacia 91 % of control | dose: 200.0 mg/kg/injection, schedule: Q01DX009 (ip), vehicle: gum acacia 91 % of control | dose: 200.0 mg/kg/injection, schedule: Q04DX003 (ip), vehicle: gum acacia 86 % of control | dose: 400.0 mg/kg/injection, schedule: Q01DX009 (ip), vehicle: gum acacia 88 % of control | dose: 400.0 mg/kg/injection, schedule: Q04DX003 (ip), vehicle: gum acacia 92 % of control

c1ccc(-c2nnc(-c3ccccc3)o2)cc1
inactive: dose: 50.0 mg/kg/injection, schedule: Q01DX009 (ip), vehicle: Klucel (hydroxypropylcellulose) (HPC) 95 % of control | dose: 100.0 mg/kg/injection, schedule: Q01DX009 (ip), vehicle: Klucel (hydroxypropylcellulose) (HPC) 101 % of control | dose: 200.0 mg/kg/injection, schedule: Q01DX009 (ip), vehicle: Klucel (hydroxypropylcellulose) (HPC) 94 % of control

c1ccc([Si](OO[Si](c2ccccc2)(c2ccccc2)c2ccccc2)(c2ccccc2)c2ccccc2)cc1
inactive: [4] 86 % of control | [5] 87 % of control

Nc1ncnc2c1ncn2C1SC(CO)C2OC21 (configuration not stated)
inactive: dose: 25.0 mg/kg/injection, schedule: Q01DX001 (ip), vehicle: carboxymethylcellulose (CMC) 93 % of control | dose: 50.0 mg/kg/injection, schedule: Q01DX001 (ip), vehicle: carboxymethylcellulose (CMC) 96 % of control | dose: 100.0 mg/kg/injection, schedule: Q01DX001 (ip), vehicle: carboxymethylcellulose (CMC) 90 % of control | dose: 200.0 mg/kg/injection, schedule: Q01DX005 (ip), vehicle: saline 94 % of control

CCCCN(Cl)CCCC
inactive: dose: 100.0 mg/kg/injection, schedule: Q04DX002 (ip), vehicle: saline + alcohol 101 % of control

COC/C(C)=C/Br
inactive: dose: 100.0 mg/kg/injection, schedule: Q01DX009 (ip), vehicle: acetone 97 % of control | dose: 200.0 mg/kg/injection, schedule: Q01DX009 (ip), vehicle: acetone 94 % of control | dose: 400.0 mg/kg/injection, schedule: Q01DX009 (ip), vehicle: acetone 94 % of control

CCCCSc1ncc(C)c(NC)n1
inactive: dose: 25.0 mg/kg/injection, schedule: Q01DX Z (ip), vehicle: methylcellulose (MC) 92 % of control | dose: 50.0 mg/kg/injection, schedule: Q01DX Z (ip), vehicle: methylcellulose (MC) 95 % of control

Oc1ccc2c(c1)CCCC2
inactive: dose: 75.0 mg/kg/injection, schedule: Q04DX003 (ip), vehicle: saline 102 % of control

COC(=O)C1=C(C)NC(=O)NC1c1ccccc1 (configuration not stated)
inactive: [1] 105 % of control | [2] 97 % of control | [3] 100 % of control
